Columns and labels:
[1] = test system: EMT phenotypic cells (MCF-7/TGFβ, MDA-MB-231 and T47D-shNMI); assay: phage capture assay; type: cell-based, human; conditions: for selectivity for EMT phenotypic cells: MDA-MB-231 and T47D-shNMI, selective = at least five times higher relative binding
From the text: (§1) Individual phage clones were characterized for their selectivity toward EMT cells, MCF-7/TGFβ and MDA-MB-231 breast cancer cells in comparison with epithelial breast cancer cells, MCF-7, T47D, and breast fibroblasts using phage capture assay and cell-based ELISA.
(§2) In phage capture assay, briefly, target cells MCF-7/TGFβ, MDA-MB-231, MCF-7, T47D, T47D-shNMI and breast fibroblasts were cultivated in triplicate to confluence in separate wells of 12-well cell culture plates. The medium with serum was incubated in separate wells in triplicate as a control. Cells were incubated with phage (1×10^10 pfu) at RT for 1 h. Unbound phages were carefully removed and cells were washed with 100 μl washing buffer for 5 min eight times to remove non-specifically interacting phages. Cells were lysed with […] (2.5% CHAPS) for 10 min on a rocker. The lysate containing cell-interacting phages was titered in E. coli ER2738 bacterial cells. Phage recovery was calculated as a ratio of output to input phage.

[2] = test system: EMT cells (MCF-7/TGFβ, MDA-MB-231, T47D-shNMI); assay: phage based-ELISA (cell-based ELISA); set-up: species or system human; conditions: 10^10 PFU, 1 hour at RT
Method: as §1
Confluent monolayers of MCF-7/TGFβ, MDA-MB-231, MCF-7, T47D, T47D-shNMI and breast fibroblasts cells were incubated at room temperature with individual phage clones (10^10 PFU), for 1 hour at RT. Subsequently, cells were washed with PBS containing 0.1% Tween-20, incubated with primary anti-M13-biotin antibody (1:1000), for 1 h, at RT. Cells were washed again with PBS containing 0.1% Tween-20, incubated with secondary antibody streptavidin-HRP (1:2000, 45 min, RT), developed with tetra methyl benzidine and read at absorbance 650 with microplate reader (BioTek).

[3] = test system: breast fibroblasts (Hs578T); assay: immunofluorescence microscopy of phage binding; type: cell-based, human; conditions: 10^8 pfu, RT 1 hr
Method: (§3) MCF-7, MCF-7/TGFβ, MDA-MB-231 and Hs578T (breast fibroblasts) cells were seeded in a 4-well chamber overnight. On the next day, cells were fed with fresh medium. LGLRGSL (SEQ ID NO: 1) (E11) (10^8 pfu) was added in fresh medium and incubated at RT for one hour. After removing the unbound phages, cells were washed with wash buffer (0.1% tween-20 in PBS) three times and fixed with 4% formaldehyde for 15 minutes at 37° C. Cells were permeabilized with 0.2% Triton X-100 at RT for 10 minutes. Reagent was removed and cells were washed with TBS 3 times. Before incubation with anti-phage antibody, cells were treated with blocking buffer for 30 minutes at RT. Cells were incubated with M13-pIII monoclonal antibody for 1 hour at RT, washed and incubated with the secondary goat anti-mouse IgG antibody labeled with Alexa Flour® 488 (Molecular Probes) at a dilution of 1:500 in PBS containing 1% BSA for 45 minutes at RT. Cells were washed three times after secondary antibody treatment. TOTO-3 was used for nucleus staining. Cells were covered with cover slides with Prolong Gold Anti-fade Reagents. Nail polish was used to seal the slide. Pictures were taken by using the NIKON eclipse TE 2000-E confocal microscope.
(§4) To further confirm the specificity of LGLRGSL (SEQ ID NO: 1) (E11) towards breast cancer cells with an EMT phenotype, immunofluorescence microscopy of intact cells (MCF-7/TGF β and MDA-MB-231), and control MCF-7 breast cancer cells and breast fibroblasts (Hs578T) were used. All cells were treated with the phage (10^8 pfu) at RT for 1 hr, and subsequently incubated with primary anti-pIII antibody and then stained with secondary anti-mouse Alexa fluor 488 secondary antibody. […] No background antibody was observed as shown in the respective controls of cells treated with just primary and secondary antibodies.

[4] = test system: MCF-7 cells; assay: immunofluorescence microscopy of phage binding; type: cell-based, human; conditions: 10^8 pfu, RT 1 hr
Method: as §3, §4

[5] = test system: MDA-MB-231; assay: immunofluorescence microscopy of phage binding; type: cell-based, human; conditions: 10^8 pfu, RT 1 hr
Method: as §3, §4

[6] = test system: MCF-7/TGFβ; assay: immunofluorescence microscopy of phage binding; type: cell-based, human; conditions: 10^8 pfu, RT 1 hr
Method: as §3, §4

[7] = test system: human breast cancer tissue microarray; assay: ex vivo phage binding to human breast cancer tissue microarray; conditions: for immunostaining for phage in invasive ductal breast cancer carcinoma: invasive ductal carcinoma sections, 10^10 pfu overnight; for binding in normal breast tissues: normal breast tissue
Method: FIG. 7A-7E presents results of ex vivo phage binding to a human breast cancer tissue microarray. Tissue microarray of invasive ductal carcinoma and adjacent normal tissues were incubated with 1010 pfu of LGLRGSL phage (SEQ ID NO: 1) or Vimentin antibody and then subsequently with M13-pIII antibody for phage and secondary peroxidase antibody for phage and Vimentin, imaged with a digital light microscope.
The breast tissue microarrays were obtained from Novus Biological (Littleton, Colo.). These include 40 breast cancer infiltrating ductal carcinoma, 10 metastatic lymph node and 9 adjacent normal breast tissues. The use of tissue was approved by the Institutional Review Board of Tuskegee University. Clinico-histopathologic characteristics of the subjects in the tissue microarray study included age, grade, hormone status and clinical stage, according to information provided by the suppliers. The expression levels were classified as negative (≤0.3), weak positive (0.3 to 1.5), or strong positive (≥1.5). Tissues were de-paraffinized in xylene and rehydrated in graded alcohols. For antigen retrieval the slides were pressure-cooked for 10 minutes. Endogenous peroxidase activity was quenched with 3% hydrogen peroxide for 5 minutes. vSlides were treated with LGLRGSL phage (SEQ ID NO: 1) (10^10 pfu) overnight. Slides were subsequently washed and blocked by 3% goat serum at room temperature for 1 hour in humidity chambers. Slides were then treated with M13-pIII phage monoclonal antibody (NEB, MA) or Vimentin antibody (Cell Siganling, Danvers, Mass.) (1:100). The HRP conjugated goat anti-mouse secondary antibody (Jackson Immunoresearch Laboratories Inc, West Grove, Pa.) was applied for 40 minutes. The antigen-antibody reaction was visualized after diaminobenzidine (Sigma-Aldrich, MO) was applied for 7 minutes. The slides were counterstained with hematoxylin (Sigma-Aldrich, MO) for 1 minute. Positive controls were included in each staining run; negative controls were obtained by omitting the primary antibody. Slides were then dehydrated in alcohols and cleared in three xylene baths before being mounted with Permount media.

[8] = test system: activated fibroblasts; assay: phage capture assay of phage binding to cancer-conditioned media activated fibroblasts; type: cell-based, human
Method: as §2
Breast fibroblasts were plated in a 12.5 cm flask cultured until approximately 70% confluent. Once properly confluent, fibroblasts were then cultured in MDA-MB-231 conditioned media or normal fibroblasts media for 72 hours. Thereafter, they were exposed to E11 phage (10^8 pfu) for 2 hours and analyzed for binding in phage capture assay as described above.

[9] = biological target: T1, heat shock protein HSPD1 (Homo sapiens, UniProt P10809); assay: biotinylated phage pulldown of receptor protein from MDA-MB-231; type: binding; conditions: pulldown from MDA-MB-231
T1 construct: endogenous in cells; host or cells: MDA-MB-231 human breast cancer cells
T1 sequence (P10809 27-573): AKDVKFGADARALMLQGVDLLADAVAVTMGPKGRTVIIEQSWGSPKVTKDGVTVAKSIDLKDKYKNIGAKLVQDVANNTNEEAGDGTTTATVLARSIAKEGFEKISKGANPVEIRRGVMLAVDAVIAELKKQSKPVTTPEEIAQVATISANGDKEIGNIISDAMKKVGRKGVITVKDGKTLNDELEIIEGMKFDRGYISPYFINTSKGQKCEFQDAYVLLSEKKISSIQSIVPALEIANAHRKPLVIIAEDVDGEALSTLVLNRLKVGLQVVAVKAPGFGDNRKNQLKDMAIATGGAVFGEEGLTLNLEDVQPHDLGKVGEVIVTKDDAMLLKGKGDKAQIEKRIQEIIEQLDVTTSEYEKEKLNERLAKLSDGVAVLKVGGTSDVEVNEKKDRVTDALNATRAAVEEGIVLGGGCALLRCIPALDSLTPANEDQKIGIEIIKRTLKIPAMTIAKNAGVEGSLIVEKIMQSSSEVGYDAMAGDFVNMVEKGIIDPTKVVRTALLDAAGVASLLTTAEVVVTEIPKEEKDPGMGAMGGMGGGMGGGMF
Method: The biotinylated phage immobilizes the receptor protein. The Dynal magnetic beads are then functionalized with streptavidin. […] To visualize the protein, the SDS-page gel was treated with silver nitrate staining. FIG. 9B discloses SEQ ID NO: 26. FIG. 9 C provides the sequence of Heat shock protein (HSPD1), mitochondrial n=2 Tax=Homo sapiens RepID=CH60_HUMAN 5 exclusive unique peptides, 5 exclusive unique spectra, 8 total spectra, 48/573 amino acids (8% coverage). FIG. 9C discloses SEQ ID NO: 27.

With GTFLFS [E32] the “selectivity for EMT phenotypic cells” value ([1]; MCF-7/TGFβ) was “very selective”.
In the case of KGDYKLF [L42], the “selectivity towards MCF-7/TGFβ, MCF-7 and breast fibroblasts” value ([1]; MCF-7/TGFβ, MCF-7 and breast fibroblasts) is reported as “not so selective” and the “specificity towards MDA-MB-231 cells” value ([1]; MDA-MB-231 cells) is reported as “high specificity”.
With LGLRGSL [E11] the “selectivity towards EMT cells in phage-based ELISA” value [2] was “confirmatory”, the “selectivity for EMT phenotypic cells” value ([1]; MCF-7/TGFβ) was “very selective” and the “phage binding (green fluorescent phage staining)” value (“phage binding” for short) [3] was “almost no binding”. For the same substance, the “phage binding” value [4] was “some staining”, the “phage binding” value [5] was “abundant binding” and the “phage binding” value [6] was “abundant binding”. The “immunostaining for phage in invasive ductal breast cancer carcinoma” value [7] was “substantial staining”, the “immunostaining for phage in invasive ductal breast cancer carcinoma” value ([7]; listed as LGLRGSL phage) was “Strong brown staining” and the “staining intensity in tumors invading into adjacent lymph nodes” value ([7]; metastasis in lymph nodes) was “increased”. The “binding in normal breast tissues” value [7] was “no binding”, the “binding in normal breast tissues” value ([7]; listed as LGLRGSL phage) was “no staining” and the “staining around the invasive or leading edge of the tumor-stromal interaction” value ([7]; tumor cells, invasive or leading edge) was “robust staining”. For the same substance, the “reactivity to activated fibroblasts” value ([8]; FIG. 5, FBC vs FBD) was “highly reactive”, the “binding to activated-fibroblasts than normal fibroblasts” value ([8]; fibroblasts in MDA-MB-231 conditioned media 72 hours vs normal fibroblast media, 10^8 pfu, 2 hours) was “twice as much” and the “binding to heat shock protein HSPD1” value [9] was “binds”.
PNLPWVP [E45] was tested, and the “selectivity for EMT phenotypic cells” value ([1]; MCF-7/TGFβ) was “very selective”.

Reference: patent publication US11624748B2, “Methods and compositions for the identification of epithelial to mesenchymal breast cancer” (Tuskegee University, priority 2019, dated 2023)
